Experimental data as given in PMC10329651, “ATPase activity of DFCP1 controls selective autophagy” (Nature Communications, 2023).

Assays:
DFCP1-FL = molecular target: T1, DFCP1-FL (Homo sapiens, UniProt Q9HBF4); assay: malachite green phosphate release (Biomol Green); assay type: biochemical; details: 0.5 mM ATP, 10 mM MgCl2, 10 µM ZnCl2, pH 7.5, 37 °C, 30 min; with and without liposomes
T1 construct: gene ZFYVE1; full length, His6-tagged, Sf9 baculovirus
T1 sequence (Q9HBF4 1-777): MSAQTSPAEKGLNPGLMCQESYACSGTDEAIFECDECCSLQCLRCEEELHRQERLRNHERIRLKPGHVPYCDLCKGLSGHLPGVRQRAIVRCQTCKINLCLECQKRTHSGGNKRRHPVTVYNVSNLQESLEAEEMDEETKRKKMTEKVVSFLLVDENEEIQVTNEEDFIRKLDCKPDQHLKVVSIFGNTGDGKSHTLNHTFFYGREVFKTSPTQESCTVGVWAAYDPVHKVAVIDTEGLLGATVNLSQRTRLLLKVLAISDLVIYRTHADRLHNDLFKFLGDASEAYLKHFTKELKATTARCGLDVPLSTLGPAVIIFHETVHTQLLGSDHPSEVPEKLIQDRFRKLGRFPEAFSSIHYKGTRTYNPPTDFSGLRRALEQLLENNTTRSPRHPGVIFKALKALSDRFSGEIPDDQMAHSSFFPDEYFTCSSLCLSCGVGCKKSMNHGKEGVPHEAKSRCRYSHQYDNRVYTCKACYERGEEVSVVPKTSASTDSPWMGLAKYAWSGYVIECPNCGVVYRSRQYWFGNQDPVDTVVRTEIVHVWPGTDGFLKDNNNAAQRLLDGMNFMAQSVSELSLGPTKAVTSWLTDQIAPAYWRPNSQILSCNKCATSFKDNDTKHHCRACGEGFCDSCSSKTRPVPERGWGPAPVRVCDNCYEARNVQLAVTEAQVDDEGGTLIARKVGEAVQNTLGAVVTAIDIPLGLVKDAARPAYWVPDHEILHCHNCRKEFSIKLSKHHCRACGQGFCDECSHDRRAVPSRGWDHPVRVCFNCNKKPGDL

DFCP1 WT (aa 1–410) = molecular target: T2, DFCP1 WT (aa 1–410) (Homo sapiens, UniProt Q9HBF4); assay: size exclusion chromatography, nucleotide-dependent dimerization; assay type: binding; details: 400 µM nucleotide, 50 mM MgCl2; non-hydrolysable ATP analogue
T2 construct: gene ZFYVE1; N-terminal ATPase domain, aa 1-410, His6-MBP fusion (pET-His6-MBP-TEV-LIC, E. coli Rosetta2(DE3))
T2 sequence (Q9HBF4 1-410): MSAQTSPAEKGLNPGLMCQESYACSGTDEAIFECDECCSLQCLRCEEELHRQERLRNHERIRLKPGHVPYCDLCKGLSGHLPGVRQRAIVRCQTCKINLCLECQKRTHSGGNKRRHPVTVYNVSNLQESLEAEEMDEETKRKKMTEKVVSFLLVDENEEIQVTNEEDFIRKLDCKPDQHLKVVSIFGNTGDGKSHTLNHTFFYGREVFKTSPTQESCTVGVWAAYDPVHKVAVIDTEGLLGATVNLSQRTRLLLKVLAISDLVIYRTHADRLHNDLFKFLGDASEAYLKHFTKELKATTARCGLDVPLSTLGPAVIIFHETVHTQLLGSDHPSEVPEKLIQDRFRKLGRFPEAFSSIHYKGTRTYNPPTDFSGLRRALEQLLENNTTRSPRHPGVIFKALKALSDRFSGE

[1] = molecular target: the molecule itself; assay: SEC; protein loaded with 400 µM ATPγS for 20 min at RT in exchange buffer (50 mM Tris, 150 mM NaCl, 50 mM MgCl2, 10% glycerol, 1 mM TCEP); Superdex 200 Increase 10/300 GL, isocratic elution at 4 °C, 0.25 ml/min; molecular weights relative to a Bio-Rad gel filtration standard

Nc1ncnc2c1ncn2[C@@H]1O[C@H](COP(=O)(O)OP(=O)(O)OP(=O)(O)O)[C@@H](O)[C@H]1O [ATP]
malachite green phosphate release (Biomol Green) (DFCP1-FL): Addition of liposomes to purified full-length DFCP1 resulted in a modest, but significant increase

Nc1ncnc2c1ncn2[C@@H]1O[C@H](COP(=O)(O)OP(=O)(O)OP(O)(O)=S)[C@@H](O)[C@H]1O [ATPγS]
size exclusion chromatography, nucleotide-dependent dimerization (DFCP1 WT (aa 1–410)): ADP-bound DFCP1 migrated as a monomer, ATPγS-loaded DFCP1 migrated as dimer

B1: His6-MBP-DFCP1 WT (aa 1-410) (domain or fragment, UniProt Q9HBF4 1-410, looked up)
chain: T2 sequence (Q9HBF4 1-410)
notes: Loaded with ADP or ATPγS before size exclusion chromatography; dimer with ATPγS, monomer with ADP; The vector has a TEV site, but no cleavage is described; also called DFCP1 N-terminus; DFCP1 ATPase domain; not shown: His6, N-terminal, kept; MBP, N-terminal, kept
stoichiometry N [1]: 2
